These results are taken from patent US20160243271A1, “Essential Oils Or Volatile Organics Thereof Electrospun In Chitosan Nanofiber Mats” (UNIVERSITY OF MASSACHUSETTS, priority 2013, published 2016).

Molecules are shown by their SMILES. ≈ marks a conversion by molar mass, not a printed value.

For one assay, the system named is P. aeruginosa S20930. As to the kind of experiment: Viability loss of P. aeruginosa, PI/DAPI fluorescence assay. Format: cell-based, Pseudomonas aeruginosa. On the procedure: (§1) The model organisms were Escherichia coli S20918 (E. coli) and P. aeruginosa S20930 (P. aeruginosa), purchased from Thermo Fisher Scientific, Waltham, Mass. The bacteria were grown in LB at 37.0 and harvested at a concentration of 10^8 cells/mL. To remove residual macromolecules and other growth medium constituents, cells were washed twice and then resuspended in an isotonic solution (0.9% NaCl, pH 5.7). This isotonic solution was used for E. coli and P. aeruginosa loss of viability studies.
Viability loss of P. aeruginosa in contact with chitosan/CA(0, 0.5, and 5.0%)/PEO nanofiber mats was determined using a previously described fluorescence assay.^33 Electrospun mats (20 mm×10 mm) were placed at the bottom of 35 mm×10 mm petri dishes (Becton, Dickinson & Co., Franklin Lakes, N.J.) to which the cells (10^7 cells/mL) resuspended in an isotonic solution were added and diluted by a factor of 2. The cells were incubated at 37° C. for various times (30, 90, and 180 min). […] Fluorescence images were acquired to detect the cells utilizing an epifluorescence microscope (Olympus) with a Chroma cube filter. […] Dead cells and the total number of cells were determined by direct cell counting. […] Throughout the Results and Discussion section, all statistical differences were determined using an unpaired t-test with values of p≦0.05 considered to be statistically significant.

The next assay relates to Escherichia coli S20918. Description: Viability loss of E. coli, modified ASTM E2149-01 shake flask method. Format: cell-based. The following applies: 3 mM CA solution. The procedure:
as §1
The viability loss of E. coli in contact with chitosan/CA(0, 0.5, and 5.0%)/PEO nanofiber mats was assayed according to a modified ASTM E2149-01 shake flask method.^30 In parallel to each experiment (i) a blank control (no nanofiber mat) and (ii) an MIC control of CA for E. coli (3 mM CA in solution) were employed.^19 Electrospun mats (10 mm×20 mm) were placed into culture tubes (16 mm×125 mm) along with 4 mL suspensions of E. coli or P. aeruginosa (5×10^6 cells/mL) in an isotonic solution (0.9% NaCl, pH 5.7). The suspensions were shaken at 200 rpm in an orbital shaker maintained at 37° C. At 30, 90, and 180 minutes, 100 μL were pipetted out from the tubes and serial dilutions were plated onto LB plates using the spread plate method.^30-32 After 24 hr incubation on agar plates, the number of viable bacteria was counted. The number of viable cells was multiplied by the dilution factor and expressed as the mean colony forming unit (CFU) per mL. The percent reduction of bacteria resulting from contact with the nanofiber mats was determined using Equation 1 where A represents the mean log10 density of bacteria for the flask containing the treated substrate after the specified contact time and B represents the untreated substrate after the specified contact time.

Another assay has as its system E. coli. To be noted: CA in solution; cited from earlier work.

As for `O=CC=Cc1ccccc1` [CA, cinnamaldehyde], the “P. aeruginosa inactivation, statistical comparison” value was “statistically equivalent” in the assay with P. aeruginosa S20930 (after 30 min); “statistically equivalent level as the chitosan/CA(0.5 and 5.0%)/PEO nanofiber mats” in the assay with P. aeruginosa S20930 (at 90 min). For the same molecule, the “E. coli inactivation compared with blank control” value with Escherichia coli S20918 (no nanofiber mat) is recorded as “statistically inactivated more E. coli than the blank control”. Also, the “antibacterial activity against E. coli compared with nanofiber mats” value in the assay with Escherichia coli S20918 (after 30 and 180 min) is on record as “statistically lower level of antibacterial activity”; in the assay with Escherichia coli S20918 (at 90 min), “statistically equivalent to the chitosan/CA(0.5%)/PEO nanofiber mats”. For the same molecule, the MIC (in general, the least concentration at which growth counts as inhibited) in the assay on E. coli is 3000 µM (≈ 396 µg/mL).
